The source of these data is article PMC4412466 (Supramolecular chemistry, 2014).

Data set [1] in a line: Phase solubility diagram of container with excess albendazole. In kind it is physicochemical. To be noted: 50 mM NaOAc buffer, pD 4.74.
Data set [2] can be described thus: Phase solubility diagram of container with excess camptothecin. The class given is physicochemical. As to conditions: 0.01 M DCl, pD 2.0.
Data set [3] in a line: Phase solubility diagram of container with excess cinnarizine. As to conditions: 50 mM NaOAc buffer, pD 4.74. In kind it is physicochemical.
For data set [4] the following is noted: cited from earlier work.

Cucurbit[7]uril [CB[7]]: the “affinity toward albendazole (slope of phase solubility diagram), CB[7] versus 1” value in data set [1] was “comparable”. For the same substance, the “affinity toward camptothecin (slope of phase solubility diagram), CB[7] versus 1” value in data set [2] is listed as “comparable affinity”. The “maximum [cinnarizine] obtained with container” value in data set [3] is listed as 13.7 mM. Further, the solubility in water in data set [4] was 20 to 30 mM.
